# Assay results as given in US8586007B2, “Co-polymer stabilizers for hydrofluoroalkane dispersions” (Wayne State University, priority 2007, dated 2013).
# What was measured:
# [1] = Colloidal probe microscopy (CPM): adhesion force (Fad) in liquid HPFP in the presence of surfactants and/or cosolvents; format: physicochemical; conditions: 298 K
# Text: Preparation and Characterization of the Drug-Modified AFM Cantilever (Colloidal Probe). Single salbutamol crystals were glued onto silicon nitride contact-mode cantilevers (NP-20) with the help of an AFM (Pico LE, Molecular Imaging). In brief, the cantilever was first positioned above a tiny drop of epoxy (Epotek 377). The AFM cantilever was then slowly approached toward the epoxy. A tiny amount of it was then carefully transferred onto the AFM tip. A similar procedure was used to attach the drug particle to the AFM tip containing the epoxy. The particle-modified AFM tip was then kept at room temperature for 24 h to allow the complete curing of the epoxy. SEM images of the drug-modified cantilevers were obtained after the adhesion force measurements to verify the integrity and quality of the probe. The spring constant of the drug-modified cantilevers was determined using a module attached to the AFM and the MI Thermal K 1.02 software. Preparation and Characterization of the Drug Crystal Substrate. Salbutamol was first dissolved in ethanol to saturation. The solution was then transferred onto a cover glass previously treated with piranha solution (7:3 v/v H2SO4/H2O2). The system was kept inside a scaled Petri dish. The crystallization process of salbutamol was induced by the controlled evaporation of ethanol. Optical microscopy was used to observe the crystal morphology. The surface topography of the salbutamol crystal was examined by AFM under tapping mode, with a silicon cantilever (BS-Multi 75). Colloidal Probe Microscopy (CPM). The force of adhesion (Fad) between the salbutamol-modified cantilever and a smooth salbutamol crystal substrate was determined by CPM, at 298 K. A fluid cell was used to perform the experiments in liquid HPFP. The procedure adopted here is similar to that used to investigate the effect of other excipients on drug-drug interactions. FIG. 2a is the schematic diagram of a typical force curve obtained during the CPM measurements. The Fad is determined as the product of the spring constant (k) of the drug-modified AFM cantilever and the maximum cantilever deflection (x) during the retraction stage of the force measurement; […]; as schematically shown in FIG. 2a. Several contact points, randomly distributed on the crystal surfaces over a 9 μm×9 μm area, were selected for the measurements. At each contact point, 25 force-distance curves were measured. The tip was moved toward and away from the substrate in a range of 2000 nm and a sweep duration of 2 s. The histograms of the measured Fad were fit to a Gaussian distribution, from which an average Fad and deviation were obtained. The same drug probe was used throughout the measurements to guarantee a constant contact area. Great care was taken to guarantee the integrity of the drug probe. Since the solubility of salbutamol in HPFP is negligible, before each new adhesion force measurement, the drug probe and drug crystal substrate were thoroughly rinsed with HPFP, followed by an Fad test in pure HPFP. […] A second set of completely independent measurements (new probe and crystal substrate) were obtained to assess the reproducibility of the reported trend in Fad.
# [2] = Solubility in propellant / solvent; format: physicochemical
compound,measurement,setting,value
CCCCCCCC/C=C\CCCCCCCC(=O)O [Oleic acid],Fad probe 1,"[1]; surfactant 1.0 mM with cosolvent ethanol 7% (v/v), probe 1",1.54 ± 0.35 nN
same,Fad probe 1,"[1]; surfactant 1.0 mM with cosolvent ethanol 7% (v/v), probe 1, listed as oleic acid",1.54 nN
same,Fad probe 2,[1]; surfactant 1.0 mM with cosolvent ethanol 7% (v/v),1.64 ± 0.21 nN
CCO [Ethanol],Fad probe 1,"[1]; no surfactant, cosolvent ethanol 7% (v/v) alone, probe 1",6.31 ± 0.47 nN
same,Fad probe 2,"[1]; no surfactant, cosolvent ethanol 7% (v/v) alone",5.01 ± 0.26 nN
CC(C)(C)NCC(O)c1ccc(O)c(CO)c1 (stereo not shown) [salbutamol],Solubility in HPFP,[2]; HPFP,negligible
same,Solubility in ethanol,[2]; ethanol,appreciable solubility
